Measured values taken from article PMC10178848, “Modulating fast skeletal muscle contraction protects skeletal muscle in animal models of Duchenne muscular dystrophy” (The Journal of Clinical Investigation, 2023).
Read-outs that look alike come from different tables or passages of the source.

System: GRMD plasma proteins
Assay type: in vivo, dog
[1] = Post-Treatment to GRMD baseline, Decreased in GRMD

O=c1ccc(-c2cnc(OCC(F)(F)F)nc2)nn1Cc1cncc(F)c1 [EDG-5506]
Change from GRMD Baseline (fraction) (Human Chorionic Gonadotropin (CGA CGB), Post-Treatment to GRMD baseline): 2.5964 fraction
Change from GRMD Baseline (fraction) (Insulin (INS), EDG-5506 treatment to GRMD baseline): 0.2426 fraction
Change from GRMD Baseline (fraction) (Insulin (INS), Post-Treatment to GRMD baseline): 0.0736 fraction
Change from GRMD Baseline (fraction) (Interferon lambda-2 (IFNL2), EDG-5506 treatment to GRMD baseline): 0.1683 fraction
Change from GRMD Baseline (fraction) (Interferon lambda-2 (IFNL2), Post-Treatment to GRMD baseline): 0.4121 fraction
Change from GRMD Baseline (fraction) (Interleukin-12 (IL12A IL12B), EDG-5506 treatment to GRMD baseline): 0.1563 fraction
Change from GRMD Baseline (fraction) (Interleukin-12 (IL12A IL12B), Post-Treatment to GRMD baseline): 0.0477 fraction
Change from GRMD Baseline (fraction) (Leucine-rich repeat transmembrane protein FLRT2 (FLRT2), EDG-5506 treatment to GRMD baseline): 0.1078 fraction
Change from GRMD Baseline (fraction) (Leucine-rich repeat transmembrane protein FLRT2 (FLRT2), Post-Treatment to GRMD baseline): -0.1244 fraction
Change from GRMD Baseline (fraction) (Megakaryocyte-associated tyrosine-protein kinase (MATK), EDG-5506 treatment to GRMD baseline): 0.083 fraction
Change from GRMD Baseline (fraction) (Megakaryocyte-associated tyrosine-protein kinase (MATK), Post-Treatment to GRMD baseline): 0.0043 fraction
Change from GRMD Baseline (fraction) (Mitogen-activated protein kinase 9 (MAPK9), EDG-5506 treatment to GRMD baseline): 0.1873 fraction
Change from GRMD Baseline (fraction) (Mitogen-activated protein kinase 9 (MAPK9), Post-Treatment to GRMD baseline): -0.0197 fraction
Change from GRMD Baseline (fraction) (Myc proto-oncogene protein (MYC), EDG-5506 treatment to GRMD baseline): 0.0043 fraction
Change from GRMD Baseline (fraction) (Myc proto-oncogene protein (MYC), Post-Treatment to GRMD baseline): 0.0245 fraction
Change from GRMD Baseline (fraction) (Nascent polypeptide-associated complex subunit alpha (NACA), EDG-5506 treatment to GRMD baseline): -0.0939 fraction
Change from GRMD Baseline (fraction) (Nascent polypeptide-associated complex subunit alpha (NACA), Post-Treatment to GRMD baseline): -0.019 fraction
Change from GRMD Baseline (fraction) (Neurexin-1-beta (NRXN1), EDG-5506 treatment to GRMD baseline): 0.163 fraction
Change from GRMD Baseline (fraction) (Neurexin-1-beta (NRXN1), Post-Treatment to GRMD baseline): 0.0798 fraction
Change from GRMD Baseline (fraction) (Neuropilin-1 (NRP1), EDG-5506 treatment to GRMD baseline): -0.1066 fraction
Change from GRMD Baseline (fraction) (Neuropilin-1 (NRP1), Post-Treatment to GRMD baseline): -0.2144 fraction
Change from GRMD Baseline (fraction) (Neutrophil elastase (ELANE), EDG-5506 treatment to GRMD baseline): 0.113 fraction
Change from GRMD Baseline (fraction) (Neutrophil elastase (ELANE), Post-Treatment to GRMD baseline): 0.0205 fraction
Change from GRMD Baseline (fraction) (Neutrophil-activating peptide 2 (PPBP), EDG-5506 treatment to GRMD baseline): -0.0999 fraction
Change from GRMD Baseline (fraction) (Neutrophil-activating peptide 2 (PPBP), Post-Treatment to GRMD baseline): 0.0464 fraction
Change from GRMD Baseline (fraction) (Osteocalcin (BGLAP), EDG-5506 treatment to GRMD baseline): 0.2208 fraction
Change from GRMD Baseline (fraction) (Osteocalcin (BGLAP), Post-Treatment to GRMD baseline): -0.0043 fraction
Change from GRMD Baseline (fraction) (PILR alpha-associated neural protein (PIANP), EDG-5506 treatment to GRMD baseline): 0.0458 fraction
Change from GRMD Baseline (fraction) (PILR alpha-associated neural protein (PIANP), Post-Treatment to GRMD baseline): -0.0155 fraction
Change from GRMD Baseline (fraction) (Periostin (POSTN), EDG-5506 treatment to GRMD baseline): 0.1077 fraction
Change from GRMD Baseline (fraction) (Periostin (POSTN), Post-Treatment to GRMD baseline): -0.1102 fraction
Change from GRMD Baseline (fraction) (Pleiotrophin (PTN), EDG-5506 treatment to GRMD baseline): 0.0122 fraction
Change from GRMD Baseline (fraction) (Pleiotrophin (PTN), Post-Treatment to GRMD baseline): -0.0998 fraction
3-hydroxyisobutyrate dehydrogenase, mitochondrial (HIBADH): Change from GRMD Baseline (fraction) [1]: 0.0399 fraction
14-3-3 protein beta/alpha (YWHAB): Change from GRMD Baseline (fraction) [1]: -0.1281 fraction
14-3-3 protein sigma (SFN): Change from GRMD Baseline (fraction) [1]: -0.1134 fraction
72 kDa type IV collagenase (MMP2): Change from GRMD Baseline (fraction) [1]: -0.3542 fraction
Adrenomedullin (ADM): Change from GRMD Baseline (fraction) [1]: -0.0931 fraction
Aggrecan core protein (ACAN): Change from GRMD Baseline (fraction) [1]: -0.1233 fraction
Alpha-synuclein (SNCA): Change from GRMD Baseline (fraction) [1]: -0.0439 fraction
Apolipoprotein B (APOB): Change from GRMD Baseline (fraction) [1]: -0.0228 fraction
Appetite-regulating hormone (GHRL): Change from GRMD Baseline (fraction) [1]: 0.0233 fraction
Atrial natriuretic factor (NPPA): Change from GRMD Baseline (fraction) [1]: 0.0027 fraction
BDNF/NT-3 growth factors receptor (NTRK2): Change from GRMD Baseline (fraction) [1]: -0.0065 fraction
BH3-interacting domain death agonist (BID): Change from GRMD Baseline (fraction) [1]: 0.0184 fraction
Bcl-2-related protein A1 (BCL2A1): Change from GRMD Baseline (fraction) [1]: 0.0661 fraction
Bone morphogenetic protein 6 (BMP6): Change from GRMD Baseline (fraction) [1]: -0.0925 fraction
Bone morphogenetic protein 10 (BMP10): Change from GRMD Baseline (fraction) [1]: -0.0513 fraction
C-X-C motif chemokine 10 (CXCL10): Change from GRMD Baseline (fraction) [1]: 0.0358 fraction
C-type mannose receptor 2 (MRC2): Change from GRMD Baseline (fraction) [1]: -0.1031 fraction
CD166 antigen (ALCAM): Change from GRMD Baseline (fraction) [1]: 0.0066 fraction
Cadherin-5 (CDH5): Change from GRMD Baseline (fraction) [1]: -0.1425 fraction
Carboxypeptidase E (CPE): Change from GRMD Baseline (fraction) [1]: 0.0109 fraction
Cell adhesion molecule 1 (CADM1): Change from GRMD Baseline (fraction) [1]: -0.1579 fraction
Chromogranin-A (CHGA): Change from GRMD Baseline (fraction) [1]: 0.0248 fraction
Ciliary neurotrophic factor receptor subunit alpha (CNTFR): Change from GRMD Baseline (fraction) [1]: -0.0624 fraction
Ck-beta-8-1 (CCL23): Change from GRMD Baseline (fraction) [1]: 0.0454 fraction
Coiled-coil domain-containing protein 80 (CCDC80): Change from GRMD Baseline (fraction) [1]: 0.0372 fraction
Collagen alpha-1(VIII) chain (COL8A1): Change from GRMD Baseline (fraction) [1]: 0.1221 fraction
